Assay results from PMC6823368 (Scientific Reports, 2019).
Like-named read-outs stand apart in the source and are kept apart here.

Experiments:
[1] = n=12; for Cmax / MRT0-∞: mean (SD); for Tmax: median (range)
Description: The volunteers were hospitalized on day-1 (the day before the study), 10 hours of fasting was required before administration[27].
The chromatographic separation was carried out on an LC system (Shimadzu LC-20AD, Tokyo, Japan) using water and acetonitrile, and AB QTRAP 4000 system (AB Sciex, Foster City, CA, USA) in positive electrospray ion mode was hired for quantification[29]–[31]. […] Liquid-liquid extraction with 3 mL dichloromethane: diethyl ether: (2:3, v/v) was employed for 200 μL human plasma.
(§1) The measurement outcomes contained area under the profile (AUC0-t), the terminal half-life (t1/2), maximum plasma concentration observed (Cmax), time of maximum concentration (Tmax). AUC from 0 to infinity (AUC0-∞). Parameters of pharmacodynamic were estimated from the INR data on each period. PT (INR) was measured with the use of prothrombin complex assay (STA-R, SPA 50 Reagent, Diagnostica stago)[34]. Maximum INR (INRmax) and baseline INR (INRbaseline) were determined by PTtest divide PTnormal.
(§2) Log-transformation of pharmacodynamic parameters INRmax and INR(AUC) were applied.

2D6 = details: hepatic isoenzyme; cited from earlier work
COX-1 = details: read-out: 50% inhibitory concentration (IC50) of COX-1; cited from earlier work
COX-2 = details: cited from earlier work
[2] = Safety evaluations (adverse events, clinical and laboratory examinations)
Description: The safety assessments were conducted on account of clinical examinations, such as evaluation of general subject appearance, vital signs and routine hematology and biochemistry assays[35], together with adverse events evaluation (AEs), conducted at screening, pretreatment, post-treatment (day 7) and end of trial (day 16). […] AEs were defined as mild, moderate or severe[37]. Determination of causal relationship between AEs and study drugs followed the criterions announced by the World Health Organization[27].

CYP2C9 = details: hepatic isoenzyme; cited from earlier work
plasma protein = details: cited from earlier work
3A4 = details: hepatic isoenzyme; cited from earlier work
[3] = parameters: method as in earlier work; details: cited from earlier work
prothrombin time (INR) = details: area under INR-time profile 0-[…]; 5 mg warfarin; n=12
Description: Current study is phase I clinical trial, which was designed as open-labeled and fixed-sequence, and all the information/data were collected from a single center. […] The volunteers were hospitalized on day-1 (the day before the study), 10 hours of fasting was required before administration[27]. Subjects should avoid any activities involved in risks of haemorrhage[9].
as §1, §2

[4] = system: vitamin K-dependent coagulation factors; details: cited from earlier work
[5] = warfarin 5 mg with steady-state imrecoxib

CC(=O)C[C@H](c1ccccc1)c1c(O)c2ccccc2oc1=O [R-warfarin]
Cmax ([1]; warfarin 5 mg alone): 285.25 (39.66) μg/L
MRT0-∞ ([1]; warfarin 5 mg alone): 88.41 (19.96) hr
Tmax ([1]; warfarin 5 mg alone): 1.0 (0.5–3.0) hr
Cmax [1, 5]: 300.75 (36.61) μg/L
MRT0-∞ [1, 5]: 83.44 (13.39) hr
Tmax [1, 5]: 0.8 (0.5–2.0) hr

CCCN1CC(c2ccc(S(C)(=O)=O)cc2)=C(c2ccc(C)cc2)C1=O [Imrecoxib, 4-(4-methylsulfonyl-phenyl)-1-propyl-3-(p-tolyl)-1H-pyrrol-2(5H)-one]
rate of metabolism by CYP2D6 (2D6): 21.1%
IC50 (COX-1): 115 ± 28 nM
selective index (IC50, COX-1/COX2) (COX-2; between that of meloxicam and celecoxib): 6.39
IC50 (COX-2; read-out: 50% inhibitory concentration (IC50) of COX-2): 18 ± 4 nM
adverse event ([2]; one subject, period 2, Day 8 after first dose (200 mg), about 1.5 hours, resolved without treatment, possibly related): mild abdominal/upper abdominal discomfort
rate of metabolism by CYP2C9 (CYP2C9): 62.5%
protein bound in plasma (plasma protein): 96%
rate of metabolism by CYP3A4 (3A4): 16.4%
accumulation in plasma ([3]; 200 mg bid for 11 consecutive days): No accumulated effects
t1/2 [3]: 20 h
Tmax ([3]; following oral consumption): 2 h
single-dose pharmacokinetics dose linearity ([3]; over the 30 to 200 mg dose range): linear

CC(=O)CC(c1ccccc1)c1c(O)c2ccccc2oc1=O (stereo not shown) [Warfarin]
safety and tolerance ([2]; healthy volunteers, across the trial): safey and good tolerance
transient elevated direct bilirubin ([2]; one subject, period 1, day 7, upper limit of normal 6.8 μmol/L, grade 1 AE, considered unrelated to study drugs): 9.6 µmol/L
INR (AUC) (prothrombin time (INR)): 143.47

CC(=O)C[C@@H](c1ccccc1)c1c(O)c2ccccc2oc1=O [S-warfarin]
share of anticoagulant activity of warfarin [4]: 85%
Cmax ([1]; warfarin 5 mg alone): 294.92 (50.35) μg/L
MRT0-∞ ([1]; warfarin 5 mg alone): 66.44 (15.76) hr
Tmax ([1]; warfarin 5 mg alone): 1.0 (0.5–3.0) hr
Cmax [1, 5]: 300.42 (34.01) μg/L
MRT0-∞ [1, 5]: 63.35 (12.78) hr
Tmax [1, 5]: 0.8 (0.5–2.0) hr
